Measurements: patent publication US20050271588A1, “Liposome targeting of matrix metalloproteinase inhibitors” (priority 2001, published 2005)
Positions of bridges follow the written chain, without caps; N, C: chain ends. Residues, ends and D or L forms follow the SMILES beside them.

Key:
[1] = tested on: HT1080 fibrosarcoma cells; test: Uptake of liposome-encapsulated rhodamine B by HT1080 cells; assay type: cell-based, human; settings: for Enhanced liposome uptake: HT1080
Method: (§1) In another series of experiments the water-soluble fluorescent marker rhodamine B was encapsulated into liposomes and its uptake by cells was measured. Samples for rhodamine B uptake were prepared by mixing 60 μl of POPC/POPE (80/20, mol/mol, one mM) liposomes containing 10 μM rhodamine B to 300 μl of DMEM medium supplemented with 10% fetal bovine serum, Glutamax I, penicillin 100 U/ml and streptomycin 0.1 mg/ml. Peptides were then added to obtain a final concentration of […]. Ten μl (10^5 cells) of medium containing the indicated cells were combined with the LUVs. After an incubation for 15 min at 37° C. or +4° C. liposomes not bound to the cells were removed from 96-well plates by rinsing three times with cold PBS. The +4° C. temperature served as a control for non-endocytotic liposome uptake by cells (Oess and Hildt, 2000). The relative amount of rhodamine B associated with the cells was determined using microplate reader with excitation at 535 nm and emission at 595 nm.
We also preincubated cells with phorbol ester (TPA) (50 nM). Preincubation times varied from 15 to 75 min. Treatment of cells by phorbol ester (TPA) increases both expression and secretion of MMP-9 (Toth et al., 1997). Results are presented as RFI=I/I0, where RFI is relative fluorescence intensity, I0 is the emission intensity for the control, 2 μM rhodamine B in LUVs without the peptides, and I is the rhodamine emission for the peptide-liposome complexes taken up by the cells. […] M-17 inhibits the binding of MMP-9 to the substrate and this inhibition is expected to be concentration dependent. […]
Cell cultures and fluorescence microscopy. […] Uptake of rhodamine B containing liposomes by the cultured cells was verified by fluorescence microscopy. An inverted fluorescence microscope (Zeiss IM 35) equipped with Nikon extra long working distance objectives (20×) and (40×) were used. […] Fluorescence images were viewed with a Peltier-cooled digital camera (C4742-95, Hamamatsu, Japan) connected to a computer and operated by software (Hipic 5.0) provided by the instrument manufacturer.

U937 cells = test: Uptake of liposome-encapsulated rhodamine B by U937 cells; assay type: cell-based
Method: as §1
We also preincubated cells with phorbol ester (TPA) (50 nM). Preincubation times varied from 15 to 75 min. Treatment of cells by phorbol ester (TPA) increases both expression and secretion of MMP-9 (Toth et al., 1997). Results are presented as RFI=I/I0, where RFI is relative fluorescence intensity, I0 is the emission intensity for the control, 2 μM rhodamine B in LUVs without the peptides, and I is the rhodamine emission for the peptide-liposome complexes taken up by the cells. […] M-17 inhibits the binding of MMP-9 to the substrate and this inhibition is expected to be concentration dependent. It is not known if rabbit polyclonal antibody blocks human MMP-2 (Murphy et al., 1994). Final concentrations of the indicated peptide, […] were 85 μM, 0.2 mM, 20 μg/ml, and 0.4 μM, respectively.
Cell cultures and fluorescence microscopy. U937 (ECACC 85011440), HT 1080 (ECACC 85111505), and CHO (ECACC 85050302) cells were cultured in RPMI or DMEM medium supplemented with 10% fetal bovine serum, Glutamax I, penicillin (100 U/ml), and streptomycin (0.1 mg/ml). Uptake of rhodamine B containing liposomes by the cultured cells was verified by fluorescence microscopy. An inverted fluorescence microscope (Zeiss IM 35) equipped with Nikon extra long working distance objectives (20×) and (40×) were used. Samples were prepared as described for the rhodamine uptake assay, with slight modifications. Accordingly, instead of washing, U937, HT 1080, and CHO cells with the rhodamine-containing liposomes and in cell culture medium were transferred into Nunclon 48 plate wells. Excitation and emission wavelengths were selected by suitable bandpass filters (Melles-Griot) transmitting in the range 535 nm and >600 nm, respectively. Fluorescence images were viewed with a Peltier-cooled digital camera (C4742-95, Hamamatsu, Japan) connected to a computer and operated by software (Hipic 5.0) provided by the instrument manufacturer.

MMP-2 = target: T1, MMP-2 (Homo sapiens, UniProt P08253); test: Casein zymography, inhibition of MMP-2; assay type: biochemical; settings: 85 μM peptide
T1 construct: purchased Boehringer Mannheim GmbH (Germany)
T1 sequence (P08253 110-660): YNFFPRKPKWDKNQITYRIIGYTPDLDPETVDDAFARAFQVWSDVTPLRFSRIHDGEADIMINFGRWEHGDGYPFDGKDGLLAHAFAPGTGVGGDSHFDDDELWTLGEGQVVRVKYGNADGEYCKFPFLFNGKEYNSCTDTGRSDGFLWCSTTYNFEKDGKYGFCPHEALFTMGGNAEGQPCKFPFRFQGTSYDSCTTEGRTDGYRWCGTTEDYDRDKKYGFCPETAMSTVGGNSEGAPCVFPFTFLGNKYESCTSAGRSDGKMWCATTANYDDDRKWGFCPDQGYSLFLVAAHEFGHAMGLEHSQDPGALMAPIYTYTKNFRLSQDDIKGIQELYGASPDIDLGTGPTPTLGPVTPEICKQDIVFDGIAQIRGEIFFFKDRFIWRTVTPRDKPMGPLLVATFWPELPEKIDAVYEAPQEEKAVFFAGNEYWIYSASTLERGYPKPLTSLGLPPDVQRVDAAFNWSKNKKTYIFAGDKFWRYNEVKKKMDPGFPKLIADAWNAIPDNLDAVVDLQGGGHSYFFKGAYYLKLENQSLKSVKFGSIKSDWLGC
Method: Assay for gelatinases. Inhibition of MMP-9 and MMP-2 by the different synthetic peptides was measured using casein zymography (Halinen et al., 1996). MMP-9 was purified as described (Sorsa et al., 1997). Subsequently, MMP-2 (2.5 μg) or MMP-9 (2.5 μg) was run on a 10% SDS-PAGE containing two mg/ml casein. The gel was first washed in Triton X-100 containing buffer to remove SDS, and it was cut into five slices which were immersed into peptide (CTT, CLP, CWL or STT) containing solutions (85 μM). After incubation for 48 hrs at 37° C., the gels were stained with Coomassie blue, scanned, and the digested areas quantitated using image analysis (Global Lab Image 3.2, Data Translation Inc. and Acuity Imaging Inc., Marlboro, Mass., USA).

tumor = settings: mouse models; cited from earlier work
[2] = Trp fluorescence I350/I330 ratio; assay type: physicochemical
Method: Fluorescence spectroscopy. The environments of the tryptophan residues of CTT, STT, CLP, and CWL in liposomes were studied by fluorescence spectroscopy. The center of Trp fluorescence peak is at ˜350 nm when in water, whereas in a hydrophobic environment the emission is centered near 330 nm. Accordingly, changes in the microenvironment of Trp can be monitored by measuring I350/I330, the ratio of the emission at 350 nm to that at 330 nm (Lakowicz, 1999). Tryptophan fluorescence was recorded with a Perkin Elmer LS 50 B spectrofluorometer equipped with a magnetically stirred and thermostated cuvette compartment. […] Excitation and emission bandpasses were 10 nm and 10 nm, respectively. Excitation wavelength was 295 nm, and emission spectra were recorded in the range 300 to 400 nm. […]

Structure (SMILES): CC(C)C[C@@H]1NC(=O)[C@H]([C@@H](C)O)NC(=O)[C@H](Cc2ccccc2)NC(=O)CNC(=O)[C@H](Cc2c[nH]c3ccccc23)NC(=O)[C@H](Cc2c[nH]cn2)NC(=O)[C@H]([C@@H](C)O)NC(=O)[C@H]([C@@H](C)O)NC(=O)[C@@H](N)CSSC[C@@H](C(=O)O)NC1=O [CTT] (H-CTTHWGFTLC-OH; disulfide 1-10; N-terminus and C-terminus assumed)
- Enhanced liposome uptake ([1]; 4° C.): not at 4 °C
- Enhanced liposome uptake ([1]; 37° C.): evident only at 37 °C
- Rhodamine intake, fluorescence microscopy ([1]; HT 1080, liposomes with vs without CTT): enhanced
- Enhancement of uptake of liposome-encapsulated rhodamine vs liposomes lacking peptide (U937 cells; U937, fluorescence plate-reader): 3.6 fold
- Rhodamine intake, fluorescence microscopy (U937 cells; U937, liposomes with vs without CTT): enhanced
- Uptake of free rhodamine B (U937 cells; no liposomes): did not promote
- Inhibition of MMP-2 activity (MMP-2): approx. 70%
- Tumor progression in vivo (tumor): inhibited
- I350/I330 of Trp residue ([2]; in PBS): 1.4
- I350/I330 of Trp residue ([2]; presence of LUVs (0.5 mM total phospholipid)): 1.00
